Several values for one entry are separate records, joined by “and”; a condition that tells them apart may be missing. Equal entries are not always repeated. Entries after “also recorded” stand apart in the source; their conditions may differ. Where two headings read alike, the source gives them in different places.
Experiments:
3T3 [1] = tested on: 3T3
Method: (§1) Photo-bleaches were tested for photo-toxicity using the Photo-toxicity-In Vitro 3T3 NRU Photo-toxicity Test” of the Commission Directive 2000/33/EC of 25 Apr.

3T3 [2] = assay: In Vitro 3T3 NRU Photo-toxicity Test; details: for Result: photo-toxicity classification
Method: as §1

[3] = Photo-bleaching of palm oil stained cotton cloths in wash followed by weatherometer irradiation; details: staining relative to clean white cloth
Method: Palm oil stained cloths (Brazilian) were prepared as follows. Palm oil 0.06 g was added deposited onto individual woven white cotton cloth samples weighing 1.2 g each. The cloth samples were allowed to age for 1 hour before being washed. Each wash consisted of four stained cloths, 200 ml of 40° C. water and 1 g of Persil Colour-washing powder (purchased in UK, zeolite based). The wash liquor was agitated for 20 minutes then the clothes rinsed in cold water, wrung and irradiated in a weatherometer for 18 minutes. The weatherometer is designed to simulate outside line drying and was set to give 42 W/m2 in the UVA&B.
The washes were duplicated but with the addition of 9 ppm of the photo-bleach to the wash solution, corresponding to 0.18% by weight on the powder formulation.
After the wash/irradiation procedure the staining of the clothes relative to clean white cloth was measured on a reflectometer and expressed as the deltaE value.

[4] = Table 3, PIF quoted to 2 significant figures
[5] = Example 1, 9 ppm photo-bleach in wash solution, 40° C. wash, irradiated 18 minutes in weatherometer
[6] = Example 2, same procedure as Example 1, 9 ppm photo-bleach

| Compound | PIF (3T3 [2]; [4]) | Result (3T3 [2]; Table 3) | further results |
| --- | --- | --- | --- |
| O=C(c1ccccc1)C1(O)CCCCC1 [1-hydroxycyclohexylphenyl ketone] |  |  | PIF (3T3 [1]): >7.5 |
| CC(C)(O)C(=O)c1ccc(OCCO)cc1 [2-hydroxy-4′-hydroxyethoxy-2-methylpropiophenone] | >120 | Photo-toxic (PIF≧5 or MPE≧0.1) |  |
| CCc1ccc2c(c1)C(=O)c1ccccc1C2=O [2-ethylanthraquinone] | >1000 | Photo-toxic (PIF≧5 or MPE≧0.1) | Average deltaE [3, 5]: 2.5 |
| CC1=CC(=O)c2ccccc2C1=O [Vitamin K3, 2-methyl-1,4-napthoquinone] | 2.3 | Non-photo-toxic (PIF<5 or MPE<0.1) | Average deltaE [3, 6]: 2.9; photo-toxicity classification (3T3 [2]): not photo-toxic; also recorded: non-photo-toxic; PIF (3T3 [2]; experiments repeated twice more): 1.9 and 1.6 |
| 2-sulphate anthraquinone |  |  | PIF (3T3 [1]): >170 |
| CN(C)CCCN1c2ccccc2Sc2ccc(Cl)cc21 [Chlorpromazine] | 43 | Photo-toxic (PIF≧5 or MPE≧0.1) |  |
| CC1(C)[C@@H]2CC[C@@]1(C)C(=O)C2=O [Camphoroquinone] |  |  | Average deltaE [3, 6]: 23.5 |
| Cc1cc(C)c(C(=O)P(=O)(C(=O)c2c(C)cc(C)cc2C)c2ccccc2)c(C)c1 [Phenylbis(2,4,6-trimethylbenzoyl)-phosphine oxide] | >12 | Photo-toxic (PIF≧5 or MPE≧0.1) |  |
| Cc1cc(C)c(C(=O)c2ccccc2)c(C)c1 [2,4,6-trimethylbenzophenone] | 28 | Photo-toxic (PIF≧5 or MPE≧0.1) | Average deltaE [3, 5]: 16.2 |

Reference: patent US20060229224A1, “Bleaching composition” (priority 2003, published 2006)
